Results on 19 compounds are retold here after patent US10077273B2, “SHMT inhibitors” (The Trustees of Princeton University, priority 2016, dated 2018).

One data set can be described thus: LogP value. In kind it is physicochemical. The following applies: Table 2; head prints (μM).
A further data set has as its system HCT cells. Briefly: Formate rescue assay in cell growth. To be noted: Table 2. In kind it is cell-based, human. As for the experimental part:
Application of formate is shown to rescue the anti-growth effect in certain human cells treated with SHMT inhibitors in a cell growth assay.
(§1) The described cell lines for Examples 8 and 9 are cultured in 96-well plates in Dulbecco's modified eagle media (DMEM) without pyruvate (CELLGRO) with 10% dialysed fetal bovine serum (Invitrogen) in 5% CO2 at 37° C. Approximately 2,500 cells are plated in each well in 90 uL of media. After 24 hours cells are treated with various concentrations of inhibitor (time=0 hours), with or without formate. Growth was assessed at multiple time points (time=0, 24, 48, 72 hours) through measurement of fluorescence at 595 nm (excitation at 535 nm) on a BioTek micro titer plate reader after incubation with resazurin (0.01 mg/mL for 1.5 hours). IC50 curves are generated from percent inhibition of growth at 72 hours.

Data set [1] deals with human colon carcinoma HCT-116 WT cells. The experiment in a line: Cell growth assay (resazurin), HCT-116 wild-type. Type of data set: cell-based. The following applies: for IC50: Homo sapiens, HCT-116, Table 2. The method, then:
as §1, with “hours. […]” for “hours.”
A general note: The colour change of resazurin is a common sign of viable cells or microbes.

The nature of data set [2]: Liver microsome assay (metabolic stability). To be noted: male, CD-1, mouse, pooled liver microsomes. Type of data set: in vitro ADME. As for the experimental part: The following master solution was prepared before compound addition:
Two separate experiments were performed as follows: a) With Cofactors (NADPH and UDPGA): 40 μL of 10 mM NADPH and 40 μL of 20 mM UDPGA were added to the incubations. The final concentrations of microsomes, NADPH and UDPGA were 0.5 mg/mL, 1 mM and 2 mM, respectively. b) Without Cofactors (NADPH and UDPGA): 10 μL of 20 mg/mL liver microsomes and 80 μL of ultra-pure water were added to the incubations. The final concentration of microsomes was 0.5 mg/mL. The mixture was pre-warmed at 37° C. for 5 minutes.
The reaction was started with the addition of 4 μL of 200 μM control compound or test compound solution. Verapamil was used as positive control in this study. The final concentration of test compound or control compound was 2 μM. The incubation solution was incubated in water bath at 37° C. Aliquots of 50 μL were taken from the reaction solution at 0.5, 5, 15, 30, 45 and 60 minutes. The reaction was stopped by the addition of 5 volumes of cold acetonitrile with IS (100 nM alprazolam, 200 nM caffeine and 100 nM tolbutamide). Samples were centrifuged at 3,220 g for 40 minutes. Aliquot of 100 μL of the supernatant was mixed with 100 μL of ultra-pure H2O and then used for LC-MS/MS analysis. The in vitro half-life (in vitro t1/2) was determined from the slope value of the LC-MS signal of the test compound.

The test system of data set [3] is human pancreatic cell line 8988T. The experiment in a line: Growth of pancreatic cancer cell line 8988T. In kind it is cell-based. To be noted: 8988T cells.
Data set [4] concerns Su-DHL4 cells. Briefly: Apoptosis by Annexin V surface staining, flow cytometry. Type of data set: cell-based. The text has this: In contrast, cell growth is further decreased in Su-DHL4 cells by addition of formate. This can be further exacerbated by removal of glycine from the media. […] Using flow cytometry, apoptosis of Su-DHL4 cells were studied with AnnexinV surface staining (FIGS. 12D and 12E).
For orientation: A flow cytometer gives signals particle by particle.

Data set [5] has as its system Su-DHL4 cells. Briefly: Cellular growth, SU-DHL4. In kind it is cell-based. The following applies: SU-DHL4, FIG. 12C legend. The method, then:
(§2) Jurkat, REH, Farage, Daudi, Su-DHL2, Su-DHL-4, Su-DHL-6 cells were purchased from ATCC. Cells were subcultured in RPMI supplemented with 10% FBS. For growth assays, cells were seeded at 2×10^5/mL in 5 mL growth media in 12.5 cm flasks. Media was supplemented with sodium formate (1 mM), additional glycine (100 mg/L) and an SHMTi (5 uM). Cells were sampled daily, and counted using trypan blue staining and light microscopy.

For another data set, the system named is Jurkat cells. The experiment in a line: Cellular growth assay, Jurkat. Type of data set: cell-based. As for the experimental part: as §2
In a further data set the target is human SHMT2 (Homo sapiens, UniProt P34897).
human SHMT2, sequence (P34897 30-504 limits assumed): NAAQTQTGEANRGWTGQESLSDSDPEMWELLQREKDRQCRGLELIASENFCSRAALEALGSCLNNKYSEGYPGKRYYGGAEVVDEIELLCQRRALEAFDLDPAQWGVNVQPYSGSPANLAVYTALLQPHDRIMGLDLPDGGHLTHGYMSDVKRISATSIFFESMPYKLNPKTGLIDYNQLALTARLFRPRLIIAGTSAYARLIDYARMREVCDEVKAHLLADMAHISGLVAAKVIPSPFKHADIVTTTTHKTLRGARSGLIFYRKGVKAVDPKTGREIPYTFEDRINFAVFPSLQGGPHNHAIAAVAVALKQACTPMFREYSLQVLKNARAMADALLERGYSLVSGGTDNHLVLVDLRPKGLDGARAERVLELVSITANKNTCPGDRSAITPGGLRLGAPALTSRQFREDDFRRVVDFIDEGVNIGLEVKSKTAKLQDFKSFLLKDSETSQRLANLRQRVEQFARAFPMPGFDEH
The subject of the next data set is HCT-116 ΔSHMT2 cells. The experiment in a line: Cell growth assay, HCT-116 SHMT2 deletion (knock-out) cells. The following applies: FIG. 3B; increased potency versus native cells. In kind it is cell-based, human. As for the experimental part: Inhibitors of SHMT were evaluated in various cancer cell lines, in the presence and absence of mutations in mitochondrial folate pathway enzymes.
To analyze the effects of inhibition on each isoform independently, SHMT1 and SHMT2 HCT-116 deletion clones were used.

The test system of the next data set is Su-DHL-2 cells. Briefly: Cellular growth assay, Su-DHL-2. Type of data set: cell-based. As for the experimental part:
as §2

The next data set concerns the target human SHMT1 (Homo sapiens, UniProt P34896). To be noted: read-out: SHMT1 IC50; Table 3.
Where [6] appears, read: replicate 1, read-out: CLint (replicate 1).
[7] abbreviates: replicate 2, read-out: CLint (replicate 2).

Like-named read-outs stand apart in the source and are kept apart here.

human SHMT1, sequence (P34896 2-483 limits assumed): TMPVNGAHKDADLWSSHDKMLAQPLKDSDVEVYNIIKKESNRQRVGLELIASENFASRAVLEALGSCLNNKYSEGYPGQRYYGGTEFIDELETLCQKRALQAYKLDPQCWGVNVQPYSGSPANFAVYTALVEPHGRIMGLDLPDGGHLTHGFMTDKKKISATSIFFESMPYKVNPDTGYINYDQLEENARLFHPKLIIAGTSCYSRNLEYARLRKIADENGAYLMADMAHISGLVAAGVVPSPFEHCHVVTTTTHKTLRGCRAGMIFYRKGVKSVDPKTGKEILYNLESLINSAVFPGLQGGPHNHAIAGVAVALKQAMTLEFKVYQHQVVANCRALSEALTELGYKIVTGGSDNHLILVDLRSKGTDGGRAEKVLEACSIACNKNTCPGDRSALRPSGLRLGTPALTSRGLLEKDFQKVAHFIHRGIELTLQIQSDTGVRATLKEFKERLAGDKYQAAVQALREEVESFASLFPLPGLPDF
Procedure for human SHMT1: (§3) For the SHMT1 and SHMT2 in vitro enzymatic assays, the rate of 5,10-methylene tetrahydrofolate formation catalyzed by SHMT1/2 was indirectly evaluated by coupling with excess MTHFD2, which converts NAD+ to NADH allowing for reaction monitoring by absorption at 340 nm. […] Inhibition of initial reaction velocity was determined by adding various inhibitors at different concentrations and monitored as described. IC50 may be calculated based on this assay.
Procedure for human SHMT2: as §3

In the data set “LogP value”, `Cc1n[nH]c2c1C(c1cc(C#CCCO)cc(C(F)(F)F)c1)(C(C)C)C(C#N)=C(N)O2` (stereo not shown) [Compound 2] showed a logP of 3.46. In addition, the “% formate rescue” value in the data set with HCT cells came out at 100.58%. In data set [1], this compound returned a concentration for half-maximal inhibition (IC50) of 6.9 µM.

For the compound `COC(=O)CCC#Cc1cc(C(F)(F)F)cc(C2(C(C)C)C(C#N)=C(N)Oc3[nH]nc(C)c32)c1` (stereo not shown) [Compound 73], the logP in the data set “LogP value” was found to be 4.17. The “% formate rescue” value in the data set on HCT cells was 97.33%. Half-maximal inhibition in data set [1] (IC50) was put at 11.1 µM.

On to `Cc1n[nH]c2c1C(c1cc(C#CCCC(N)=O)cc(C(F)(F)F)c1)(C(C)C)C(C#N)=C(N)O2` (stereo not shown) [Compound 11], for which the “% formate rescue” value in the data set on HCT cells was 96.98%. In addition, the microsomal CLint at 2 μM stood at 764 µL/min/mg in data set [2] (setting [6]) and 541 µL/min/mg in [2] (setting [7]). In data set [1], this compound gave an IC50 of 5.98 µM.

Consider `Cc1n[nH]c2c1C(c1cc(C#N)cc(C#CCCCO)c1)(C(C)C)C(C#N)=C(N)O2` (stereo not shown) [Compound 71], for which the “% formate rescue” value in the data set with HCT cells turned out to be 97.81%. The microsomal CLint at 2 μM stood at 285 µL/min/mg in [2] (setting [6]) and 203 µL/min/mg in [2] (setting [7]). For the same compound, the midpoint of inhibition in [1], the IC50, lay at 4.96 µM.

Consider `Cc1n[nH]c2c1C(c1cc(CO)cc(-c3ccccc3)c1)(C(C)C)C(C#N)=C(N)O2` (stereo not shown) [HK-X2], for which the “concentrations that impair cell growth” value in data set [3] is recorded as less than 100 nM. The “apoptotic fraction of cells” value was determined as 8% with Su-DHL4 cells [4] (inhibitor alone, untreated 2%) and 15% in the data set with Su-DHL4 cells [4] (inhibitor in the presence of formate). Further, the IC70 in the data set with Su-DHL4 cells [5] worked out at 5 µM. This compound showed an IC80 in the data set on Jurkat cells (FIG. 12C legend) of 2.5 µM.

As for `Cc1n[nH]c2c1C(c1cc(C#N)cc(C#CCCC(=O)O)c1)(C(C)C)C(C#N)=C(N)O2` (stereo not shown) [Compound 68], in the data set on HCT cells, the “% formate rescue” value came out at 106.02%. In data set [1], the IC50 was determined as 100 µM.

`Cc1n[nH]c2c1C(c1cc(C#CCCCO)cc(CO)c1)(C(C)C)C(C#N)=C(N)O2` (stereo not shown) [Compound 74]: the microsomal CLint at 2 μM in data set [2] (setting [6]) and in [2] (setting [7]) was 68 µL/min/mg throughout.

Regarding `Cc1n[nH]c2c1C(C)(c1cccc([N+](=O)[O-])c1)C(C#N)=C(N)O2` (stereo not shown) [GD-07], the IC50 on human SHMT2 (read-out: SHMT2 IC50, Table 3) is greater than 5 µM.

Take `Cc1n[nH]c2c1C(c1cc(C#CCCC(=O)N[C@H](CCC(=O)O)C(=O)O)cc(C(F)(F)F)c1)(C(C)C)C(C#N)=C(N)O2` (stereo partly shown) [Compound 70]: the logP in “LogP value” was 2.49. The “% formate rescue” value in the data set on HCT cells amounted to 94.89%. The IC50 in data set [1] was 100 µM.

In “LogP value”, `Cc1n[nH]c2c1C(c1cc(C#CCCC(=O)NC(C)(C)C(=O)O)cc(C(F)(F)F)c1)(C(C)C)C(C#N)=C(N)O2` (stereo not shown) [Compound 72] displayed a logP of 3.38. Moreover, the “% formate rescue” value with HCT cells is listed as 98.35%. Further, in data set [1], the IC50 stood at 200 µM.

For `Cc1n[nH]c2c1C(c1cc(C#CCCCO)cc(C(F)(F)F)c1)(C(C)C)C(C#N)=C(N)O2` (stereo not shown) [Compound 61, 6-amino-4-(3-(5-hydroxypent-1-yn-1-yl)-5-(trifluoromethyl)phenyl)-4-isopropyl-3-methyl-1,4-dihydropyrano[2,3-c]pyrazole-5-carbonitrile], in the data set with HCT-116 ΔSHMT2 cells, the “growth of SHMT2 knock-out HCT116 cells” value is given as “inhibited growth”. For the same compound, in data set [1] (native HCT116, FIG. 3A), the “growth (proliferation) of HCT116 cells” value was “inhibited growth”.

As for `Cc1n[nH]c2c1C(c1cc(Br)cc(C(F)(F)F)c1)(C(F)(F)F)C(C#N)=C(N)O2` (stereo not shown), the microsomal CLint at 2 μM in data set [2] (setting [6]) turned out to be 87.8 µL/min/mg; in data set [2] (setting [7]), 71.5 µL/min/mg.

Consider `Cc1n[nH]c2c1C(c1cc(C#CCCCO)cc(C(F)(F)F)c1)(C(C)C)C(C#N)=C(N)O2` (stereo not shown) [Compound 1], for which the logP in “LogP value” was determined as 3.91. The microsomal CLint at 2 μM in data set [2] (setting [6]) came out at 597 µL/min/mg; in [2] (setting [7]) it was 776 µL/min/mg.

Turning to `Cc1n[nH]c2c1[C@@](c1cc(C(F)(F)F)cc(C(F)(F)F)c1)(C(C)C)C(C#N)=C(N)O2` [HK-16 (PK-2)], the “growth as assessed by cell count” value is “inhibited” in the data set on Su-DHL-2 cells (Su-DHL-2, 5 μM) and “inhibited” with Jurkat cells (5 μM). Also, the “rescue of growth inhibition by formate” value was “not rescued” in the data set on Su-DHL-2 cells (Su-DHL-2, 5 μM + 1 mM formate) and “significantly rescued” in the data set with Jurkat cells (5 μM + 1 mM sodium formate).

On to `Cc1n[nH]c2c1C(c1cc(C#CCCC(=O)O)cc(C(F)(F)F)c1)(C(C)C)C(C#N)=C(N)O2` (stereo not shown) [Compound 4], for which the “% formate rescue” value in the data set with HCT cells worked out at 93.35%. Further, the IC50 in data set [1] amounted to 15.1 µM; at human SHMT2 (read-out: SCHMT2 IC50, Table 2), 0.00017 µM.

Regarding `Cc1n[nH]c2c1C(c1cc(C#CCCC(=O)N[C@@H](CCC(=O)O)C(=O)O)cc(C(F)(F)F)c1)(C(C)C)C(C#N)=C(N)O2` (stereo partly shown) [Compound 69], the “% formate rescue” value in the data set on HCT cells is on record as 96.41%. Also, 100 µM corresponded to half-maximal inhibition in data set [1] (IC50).

Regarding `Cc1n[nH]c2c1C(c1cc(C#CCCCN)cc(C(F)(F)F)c1)(C(C)C)C(C#N)=C(N)O2` (stereo not shown) [Compound 8], the “% formate rescue” value in the data set on HCT cells is 80.65%. Moreover, 2.04 µM corresponded to half-maximal inhibition in data set [1] (IC50).

`Cc1n[nH]c2c1C(c1cc(C#CCCCO)cc(C(F)(F)F)c1)(C(C)C)C(C#N)=C(N)O2` (stereo not drawn) [1 (enantiomeric ally active peak)]: the “% formate rescue” value in the data set on HCT cells came to 94.96%. The IC50 in [1] was 1.36 µM.

`COc1cccc(C2(C3CCC3)C(C#N)=C(N)Oc3[nH]nc(C)c32)c1` (stereo not shown) [HK-2]: the IC50 at human SHMT1 is greater than 5 µM; on human SHMT2 (read-out: SHMT2 IC50, Table 3), greater than 5 µM.

For orientation: logP means the decadic logarithm of the partition coefficient of the neutral form, usually between octanol and water. Read a high logP as a more lipophilic compound. Broadly, the IC50 is the concentration that inhibits the measured activity by half. Usually IC70 stands for the point of the concentration-response curve where the effect stands at 70%. Low readings indicate an effect from little substance, high ones a need for much substance. The IC80 is the point of the concentration-response curve where the effect stands at 80%.
